Where a name gives a salt, the structure may show the parent alone.
Tested on: LDL receptor mRNA
Assay: LDL receptor mRNA levels in rat livers (Northern blot, β-actin as internal standard)
Format: in vivo
Settings: rat liver, 30 mg/kg, 6 hours after administration; untreated control = 100%
Procedure: To test the ability of the inventive compounds to lower plasma lipid levels, the stimulation of LDL receptor mRNA production was chosen as a surrogate. Thus, in rat livers, within a few hours the LDL receptor mRNA levels are increased by the compounds of the formula I (Table I). The stimulation is in the range from 170 to 350% of the controls (control=100%).
The preparation of the mRNA was carried out according to the method of Chomczynski, P. and Sacchi, N., Anal. Biochem. 162, 156-159 (1987). In organs (such as, for example, liver), the deep-frozen tissue was homogenized on dry ice beforehand in a mortar and the mRNA was further enriched by means of Oligo dT according to standard methods (cf. Sambrook, J., Fritsch, E. F. and Maniatis, T., Molecular Cloning, second Edition, Cold Spring Harbor (1989); in this collection of methods, there are also descriptions of all further relevant molecular biology standard methods used here). Five to […] of the dissolved mRNA thus obtained were denatured according to standard methods and separated on 1% horizontal agarose gels. The mRNA was transferred to Hybond N membranes (Amersham) by means of capillary blot. The specific hybridization probe used was a partial LDL receptor cDNA clone and the internal standard a plasmid which contained a β-actin gene. Both plasmids were labeled by means of a random primer kit from Amersham up to a specific activity of 5×10^9 cpm/mg. Prehybridization, hybridization and washing of the filters were carried out by standard methods. The filters were then exposed at -70° C. on Cronex 4 films (Dupont) overnight up to 14 days in the presence of an intensifying screen and the hybridization signals were quantified using a commercial laser densitometer by means of the film-blackening intensity. The quotient of the intensity of the LDL receptor band and of the actin band was then determined as an internal standard to correct yield variations.
Liver tissue was removed and shock-frozen in liquid nitrogen. The mRNA was then isolated as described, and the relative LDL receptor mRNA levels were determined by means of the Northern blot technique. The mRNA levels of untreated control animals were set at 100%, and the stimulation of the LDL receptor mRNA in percent of the control was calculated.

In order of rising “LDL receptor mRNA (stimulation in percent of the control)” value:
1. CC1(C)CN(c2ncc(C(=O)N(CC(F)(F)F)c3cccc(OC(F)(F)F)c3)c(N)n2)C(=O)N1 [Example 4, 4-Amino-2-(4,4-dimethylimidazolidin-2-on-1-yl)-5-[N-(2,2,2-trifluoroethyl)-N-(3-trifluoromethoxyphenyl)]-pyrimidinecarboxamide]  230%
2. CCN(C(=O)c1cnc(N2CC(C)(C)NC2=O)nc1N)c1cccc(OC(F)(F)F)c1 [Example 3, 4-Amino-2-(4,4-dimethyl-2-oxo-1-imidazolidin-2-on-1-yl)-5-[N-ethyl-N-(3-trifluoromethoxy)phenyl]pyrimidinecarboxamide hydrochloride]  235%
3. CC1(C)CN(c2ncc(C(=O)Nc3cccc(SC(F)(F)F)c3)c(N)n2)C(=O)N1 [Example 22, 4-Amino-2-(4,4-dimethylimidazolidin-2-on-1-yl)-5-[N-(3-trifluorothiomethyl-phenyl)]pyrimidinecarboxamide-hydrochloride]  235%
4. CC1(C)CN(c2ncc(C(=O)Nc3ccc4c(c3)OC(F)(F)C(F)(F)O4)c(N)n2)C(=O)N1 [Example 15, 4-Amino-2-(4,4-dimethylimidazolidin-2-on-1-yi)-5-[N-(2,2,3,3-tetrafluorobenzo-1,4-dioxan-6-yl)]-pyrimidinecarboxamide hydrochloride]  242%
5. CC1(C)CN(c2ncc(C(=O)Nc3cccc(OC(F)(F)F)c3)c(N)n2)C(=O)N1 [Example 2, 4-Amino-2-(4,4-dimethylimidazolidin-2-on-1-yl)-5-(3-trifluoromethoxyphenylpyrimidine)carboxamide]  250%
6. CC1(C)CN(c2ncc(C(=O)Nc3ccc4c(c3)OC(F)(F)O4)c(N)n2)C(=O)N1 [Example 14, 4-Amino-2-(4,4-dimethylimidazolidin-2-on-1-yl)-5-[N-(2,2-difluorobenzo-1,3-dioxol-5-yl)]pyrimidinecarboxamide-hydrochloride]  250%
